Experimental data from ChEMBL document CHEMBL1139808, “Structure-activity relationship study of novel NR2B-selective antagonists with arylamides to avoid reactive metabolites formation” (Bioorg Med Chem Lett, 2007).

Experiments:
[1] = target: Glutamate receptor ionotropic, NMDA 2B (Rattus norvegicus, UniProt P35439+Q00960); assay: Displacement of [3H]racemic CP-101606 from rat NR2B receptor in P2 membrane; assay type: cell membranes
[2] = target: Voltage-gated inwardly rectifying potassium channel KCNH2 (Homo sapiens, UniProt Q12809); assay: Inhibition of hERG; assay type: toxicity
Chain of Voltage-gated inwardly rectifying potassium channel KCNH2 (Q12809 whole entry): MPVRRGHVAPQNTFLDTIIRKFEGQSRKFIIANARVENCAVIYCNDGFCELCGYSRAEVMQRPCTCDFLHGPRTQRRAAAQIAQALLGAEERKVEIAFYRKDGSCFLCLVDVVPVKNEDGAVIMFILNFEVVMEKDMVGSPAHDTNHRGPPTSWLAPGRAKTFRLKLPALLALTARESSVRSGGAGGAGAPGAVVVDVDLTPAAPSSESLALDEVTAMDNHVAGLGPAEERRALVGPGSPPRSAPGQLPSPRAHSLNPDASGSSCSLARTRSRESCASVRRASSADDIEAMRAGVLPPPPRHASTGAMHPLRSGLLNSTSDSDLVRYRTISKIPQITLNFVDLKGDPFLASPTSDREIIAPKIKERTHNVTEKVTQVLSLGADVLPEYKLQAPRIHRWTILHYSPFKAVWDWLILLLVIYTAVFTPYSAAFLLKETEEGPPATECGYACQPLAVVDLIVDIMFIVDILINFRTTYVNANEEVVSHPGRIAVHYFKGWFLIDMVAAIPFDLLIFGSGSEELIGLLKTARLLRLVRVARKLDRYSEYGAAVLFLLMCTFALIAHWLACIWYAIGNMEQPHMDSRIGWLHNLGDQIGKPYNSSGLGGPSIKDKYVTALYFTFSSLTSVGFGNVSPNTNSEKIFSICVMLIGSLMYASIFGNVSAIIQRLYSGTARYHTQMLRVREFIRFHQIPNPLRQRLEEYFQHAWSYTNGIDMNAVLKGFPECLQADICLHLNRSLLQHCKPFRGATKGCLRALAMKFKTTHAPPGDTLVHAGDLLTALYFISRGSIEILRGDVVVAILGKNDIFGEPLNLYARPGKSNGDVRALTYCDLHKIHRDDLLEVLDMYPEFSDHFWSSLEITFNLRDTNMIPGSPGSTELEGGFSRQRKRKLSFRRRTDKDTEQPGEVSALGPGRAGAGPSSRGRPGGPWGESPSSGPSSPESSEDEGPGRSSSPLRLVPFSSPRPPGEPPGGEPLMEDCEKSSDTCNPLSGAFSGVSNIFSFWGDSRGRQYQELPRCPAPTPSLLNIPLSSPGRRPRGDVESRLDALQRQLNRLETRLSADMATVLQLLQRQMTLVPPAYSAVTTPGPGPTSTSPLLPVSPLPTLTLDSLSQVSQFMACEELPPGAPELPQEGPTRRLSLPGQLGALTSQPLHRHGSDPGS

[3] = target: hERG (Homo sapiens, UniProt Q12809); assay: Inhibition of hERG current at 10 uM; assay type: toxicity
Chain of hERG (Q12809 whole entry): as above

[4] = Bioavailability in rat; assay type: ADME, organism-based; details: in vivo
[5] = organism: Mus musculus; assay: Analgesic activity in PSL mouse model assessed as latency to paw withdrawal; assay type: functional; details: read-out: MED
[6] = test system: Rattus norvegicus; assay: Effect on haloperidol catalepsy in po dosed rat assessed as […]; assay type: functional; details: read-out: MED
[7] = Metabolic stability assessed as half life in human liver microsomes; assay type: ADME, Microsome

Chain of Glutamate receptor ionotropic, NMDA 2B (Q00960 whole entry, one chain of several): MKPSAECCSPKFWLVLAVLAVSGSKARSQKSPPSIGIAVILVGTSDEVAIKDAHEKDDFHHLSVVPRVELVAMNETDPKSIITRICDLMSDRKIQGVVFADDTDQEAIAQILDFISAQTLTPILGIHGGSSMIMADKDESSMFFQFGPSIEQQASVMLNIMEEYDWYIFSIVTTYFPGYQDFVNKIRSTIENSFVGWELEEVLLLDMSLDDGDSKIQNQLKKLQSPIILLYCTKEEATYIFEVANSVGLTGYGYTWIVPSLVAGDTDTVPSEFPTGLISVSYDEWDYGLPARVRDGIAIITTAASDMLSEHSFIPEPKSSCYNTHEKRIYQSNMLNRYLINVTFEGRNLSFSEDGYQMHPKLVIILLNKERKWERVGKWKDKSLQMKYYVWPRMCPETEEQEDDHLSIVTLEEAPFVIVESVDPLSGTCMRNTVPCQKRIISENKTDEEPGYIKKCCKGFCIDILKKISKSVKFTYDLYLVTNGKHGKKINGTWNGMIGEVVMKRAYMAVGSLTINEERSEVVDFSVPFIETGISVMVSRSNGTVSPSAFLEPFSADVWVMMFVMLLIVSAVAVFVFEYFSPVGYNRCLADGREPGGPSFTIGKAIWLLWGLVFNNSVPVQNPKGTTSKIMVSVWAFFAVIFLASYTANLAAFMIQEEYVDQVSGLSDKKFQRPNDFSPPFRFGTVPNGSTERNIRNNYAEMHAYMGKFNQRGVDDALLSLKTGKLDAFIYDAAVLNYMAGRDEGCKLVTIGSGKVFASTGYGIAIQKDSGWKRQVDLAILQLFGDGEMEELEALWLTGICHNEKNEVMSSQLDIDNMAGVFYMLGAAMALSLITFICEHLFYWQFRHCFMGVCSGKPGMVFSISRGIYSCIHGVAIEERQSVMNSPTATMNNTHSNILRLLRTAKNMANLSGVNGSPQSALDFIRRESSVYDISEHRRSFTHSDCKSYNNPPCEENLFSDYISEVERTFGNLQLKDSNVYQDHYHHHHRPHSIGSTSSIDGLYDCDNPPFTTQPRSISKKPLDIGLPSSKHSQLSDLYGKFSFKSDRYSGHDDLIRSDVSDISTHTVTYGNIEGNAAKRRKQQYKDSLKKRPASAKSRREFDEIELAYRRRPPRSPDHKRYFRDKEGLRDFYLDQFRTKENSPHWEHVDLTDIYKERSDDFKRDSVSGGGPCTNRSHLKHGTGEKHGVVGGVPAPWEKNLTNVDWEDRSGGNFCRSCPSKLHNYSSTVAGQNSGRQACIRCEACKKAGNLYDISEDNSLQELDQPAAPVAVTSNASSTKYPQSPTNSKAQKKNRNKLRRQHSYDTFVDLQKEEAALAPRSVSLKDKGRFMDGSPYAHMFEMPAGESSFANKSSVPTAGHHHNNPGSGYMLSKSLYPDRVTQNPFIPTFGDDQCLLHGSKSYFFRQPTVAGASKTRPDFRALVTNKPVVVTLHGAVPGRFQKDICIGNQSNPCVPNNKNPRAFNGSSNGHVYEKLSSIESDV

| Ki [1] [µM] | SMILES | further results |
| --- | --- | --- |
| 0.0056 | O=C(NCc1cccc(OCCc2ccccc2)c1)c1ccc(O)cc1 | – |
| 0.0042 | O=C(NC[C@H]1CC[C@@H](CCOc2ccccc2)CC1)c1cn[nH]c1 | IC50 [2]: > 30 µM; inhibition at 10 µM [3]: 36%; bioavailability [4]: 43%; minimal effective dose [5]: 3 mg/kg |
| 0.0068 | O=C(NC[C@H]1CC[C@@H](COc2ccccc2)CC1)c1ccc(O)cc1 | minimal effective dose [6]: 3 mg/kg; half-life [7]: 2.3 min |
| 0.0068 | O=C(NC[C@H]1CC[C@@H](CCOc2ccccc2)CC1)c1cc[nH]c1 | – |
| 0.0085 | O=C(NC[C@H]1CC[C@@H](CCOc2ccccc2)CC1)c1cc(F)c(O)c(F)c1 | – |
| 0.018 | O=C1CCc2cc(C(=O)NC[C@H]3CC[C@@H](COc4ccccc4)CC3)ccc2N1 | – |
| 0.0089 | O=C(NC[C@H]1CC[C@@H](CCOc2ccccc2)CC1)c1ccn[nH]1 | half-life [7]: 36 min |
| 0.0037 | Nc1n[nH]cc1C(=O)NC[C@H]1CC[C@@H](CCOc2ccccc2)CC1 | half-life [7]: 59 min |
| 0.014 | O=C(NC[C@H]1CC[C@@H](COc2ccccc2)CC1)c1cn[nH]c1 | half-life [7]: 44 min |
| 0.0056 | O=C(NC[C@H]1CC[C@@H](CCOc2ccccc2)CC1)c1ccc(=O)[nH]n1 | – |
| 0.011 | O=C1C=CC(C(=O)NC[C@H]2CC[C@@H](CCOc3ccccc3)CC2)NN1 (stereo partly drawn) | – |
| 0.015 | O=C(NC[C@H]1CC[C@@H](CCOc2ccccc2)CC1)c1ccc2[nH]ncc2c1 | – |
| 0.084 | O=C(NC[C@H]1CC[C@@H](COc2ccccc2)CC1)c1cc[nH]c1 | – |
| 0.015 | O=C(NCc1cccc(C(=O)NCc2ccccc2)c1)c1ccc(O)cc1 | IC50 [2]: > 30 µM |
| 0.0059 | O=C1CCc2cc(C(=O)NC[C@H]3CC[C@@H](CCOc4ccccc4)CC3)ccc2N1 | – |
| 0.02 | O=C(NC[C@H]1CC[C@@H](CCOc2ccccc2)CC1)c1ccc(O)cc1 | – |
| 0.012 | O=C(NC[C@H]1CC[C@@H](COc2ccccc2)CC1)c1cc(F)c(O)c(F)c1 | – |

| SMILES | Ki [1] [µM] | further results |
| --- | --- | --- |
| O=C(NC[C@H]1CC[C@@H](COc2ccccc2)CC1)c1ccn[nH]1 | > 0.1 | – |
| Nc1[nH]ncc1C(=O)NC[C@H]1CC[C@@H](COc2ccccc2)CC1 | > 0.1 | – |
| O=C1C=CC(C(=O)NC[C@H]2CC[C@@H](COc3ccccc3)CC2)NN1 (stereo partly drawn) | > 0.1 | – |
| Cc1n[nH]c(C)c1C(=O)NC[C@H]1CC[C@@H](COc2ccccc2)CC1 | > 0.1 | – |
| Cc1n[nH]c(C)c1C(=O)NC[C@H]1CC[C@@H](CCOc2ccccc2)CC1 | > 0.1 | – |
| O=C(NC[C@H]1CC[C@@H](COc2ccccc2)CC1)c1ccc(=O)[nH]n1 | > 0.1 | – |
